Source: patent publication US9499538B2, “Estrogen receptor modulators and uses thereof” (Seragon Pharmaceuticals, Inc., priority 2012, dated 2016)

Legend:
MCF-7 cells = test: Breast Cancer Cell Viability Assays (MCF-7, CellTiter-Glo); type: cell-based; details: 5 days' compound exposure; for IC50: Homo sapiens, MCF7, 120 h
In short: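 Percent viability, background-subtracted against untreated wells, was taken from CellTiter-Glo luminescence after 5 days' exposure of MCF-7 cells. Compounds were tested at eleven semilog concentrations, final 0.3–0.000003 μM, in RPMI containing 10% FBS.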

ER-α in MCF-7 cells = target: T1, ER-α in MCF-7 cells (Homo sapiens, UniProt P03372); test: Breast Cancer Cell ER-α In Cell Western Assay (SP1); type: cell-based; details: 4 or 24 hr post compound addition; for Emax: MCF7, SP1 antibody, read-out: ER-α In Cell Western Assay (SP1) Max Response; for DC50: SP1 antibody, read-out: ER-α In Cell Western Assay (SP1) IC50
T1 construct: endogenous in cells; host or cells: MCF-7
T1 sequence (P03372 1-595): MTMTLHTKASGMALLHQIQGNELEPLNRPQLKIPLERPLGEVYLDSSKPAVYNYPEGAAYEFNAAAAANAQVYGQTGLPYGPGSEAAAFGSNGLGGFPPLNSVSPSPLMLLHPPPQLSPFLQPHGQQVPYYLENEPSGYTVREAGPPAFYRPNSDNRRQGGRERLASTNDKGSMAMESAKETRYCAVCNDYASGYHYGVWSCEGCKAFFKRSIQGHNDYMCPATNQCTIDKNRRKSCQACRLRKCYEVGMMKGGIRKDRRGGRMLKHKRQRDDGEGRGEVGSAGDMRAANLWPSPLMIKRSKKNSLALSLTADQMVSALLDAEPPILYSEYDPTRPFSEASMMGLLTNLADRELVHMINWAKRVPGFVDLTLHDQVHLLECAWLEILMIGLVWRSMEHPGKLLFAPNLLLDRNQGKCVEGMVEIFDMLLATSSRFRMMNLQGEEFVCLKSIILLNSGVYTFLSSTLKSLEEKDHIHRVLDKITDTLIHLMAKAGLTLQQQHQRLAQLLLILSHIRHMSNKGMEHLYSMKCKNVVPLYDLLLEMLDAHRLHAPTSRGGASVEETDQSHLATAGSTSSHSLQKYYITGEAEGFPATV
In short: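 ER-α levels quantified by in-cell western: SP1 signal normalised to DRAQ5 DNA stain, relative to untreated cells (% ER). Compounds at 0.3–0.000003 μM final, 11-point semilog series, 4 or 24 h exposure of MCF-7 cells grown in charcoal-stripped serum.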

Row | SMILES | MCF7 Viability Assay Max Response (MCF-7 cells) | IC50 (MCF-7 cells) [µM] | Emax (ER-α in MCF-7 cells) [%] | DC50 (ER-α in MCF-7 cells) [µM]
1 | O=C(O)/C=C/c1ccc(/C(=C(\c2ccccc2)C2CCC2)c2ccc3[nH]nc(F)c3c2)cc1Cl [Example 167, (E)-3-(2-Chloro-4-((Z)-2-cyclobutyl-1-(3-fluoro-1H-indazol-5-yl)-2-phenylvinyl)phenyl)acrylic acid] | ++ (++ = a single % value ≧ 40%) | ≤ 0.1 | ≥ 40 | ≤ 0.1
2 | O=C(O)/C=C/c1ccc(/C(=C(\c2ccc(F)cc2Cl)C2CCC2)c2ccc3[nH]nc(F)c3c2)cn1 [Example 168, (E)-3-(5-((Z)-2-(2-Chloro-4-fluorophenyl)-2-cyclobutyl-1-(3-fluoro-1H-indazol-5-yl)vinyl)pyridin-2-yl)acrylic acid] | ++ (++ = a single % value ≧ 40%) | ≤ 0.1 | ≥ 40 | ≤ 0.1
3 | O=C(O)/C=C/c1ccc(/C(=C(\c2ccccc2Cl)C2CCC2)c2ccc3[nH]nc(F)c3c2)cn1 [Example 169, (E)-3-(5-((Z)-2-(2-Chlorophenyl)-2-cyclobutyl-1-(3-fluoro-1H-indazol-5-yl)vinyl)pyridin-2-yl)acrylic acid] | ++ (++ = a single % value ≧ 40%) | ≤ 0.1 | ≥ 40 | ≤ 0.1
4 | CC/C(=C(/c1ccc(/C=C/c2nnn[nH]2)cc1)c1ccc2[nH]nc(F)c2c1)c1ccc(F)cc1Cl [Example 170, 5-((E)-1-(4-((E)-2-(2H-Tetrazol-5-yl)vinyl)phenyl)-2-(2-chloro-4-fluorophenyl)but-1-en-1-yl)-3-fluoro-1H-indazole] | ++ (++ = a single % value ≧ 40%) | ≤ 0.1 | ≥ 40 | ≤ 0.1
5 | CC/C(=C(/c1ccc(/C=C/c2nnn[nH]2)cc1)c1ccc2[nH]nc(F)c2c1)c1ccncc1Cl [Example 171, 5-((E)-1-(4-((E)-2-(2H-Tetrazol-5-yl)vinyl)phenyl)-2-(3-chloropyridin-4-yl)but-1-en-1-yl)-3-fluoro-1H-indazole] | ++ (++ = a single % value ≧ 40%) | ≤ 0.1 | ≥ 40 | ≤ 0.1
6 | Fc1n[nH]c2ccc(/C(=C(/c3ccncc3Cl)C3CCC3)c3ccc(/C=C/c4nnn[nH]4)cc3)cc12 [Example 172, 5-((E)-1-(4-((E)-2-(2H-Tetrazol-5-yl)vinyl)phenyl)-2-(3-chloropyridin-4-yl)-2-cyclobutylvinyl)-3-fluoro-1H-indazole] | ++ (++ = a single % value ≧ 40%) | ≤ 0.1 | ≥ 40 | ≤ 0.1
7 | Fc1ccc(/C(=C(\c2ccc(/C=C/c3nnn[nH]3)cc2)c2cccc3[nH]ncc23)C2CCC2)c(Cl)c1 [Example 173, 4-((E)-1-(4-((E)-2-(2H-Tetrazol-5-yl)vinyl)phenyl)-2-(2-chloro-4-fluorophenyl)-2-cyclobutylvinyl)-1H-indazole] | ++ (++ = a single % value ≧ 40%) | ≤ 0.1 | ≥ 40 | ≤ 0.1
8 | Fc1n[nH]c2ccc(/C(=C(/c3ccccc3)C3CCC3)c3ccc(/C=C/c4nnn[nH]4)cc3)cc12 [Example 174, 5-((E)-1-(4-((E)-2-(1H-Tetrazol-5-yl)vinyl)phenyl)-2-cyclobutyl-2-phenylvinyl)-3-fluoro-1H-indazole] | ++ (++ = a single % value ≧ 40%) | ≤ 0.1 | ≥ 40 | ≤ 0.1
9 | Fc1ccc(/C(=C(\c2ccc(/C=C/c3nnn[nH]3)cc2)c2ccc3scnc3c2)C2CCC2)c(Cl)c1 [Example 175, 5-((E)-1-(4-((E)-2-(2H-Tetrazol-5-yl)vinyl)phenyl)-2-(2-chloro-4-fluorophenyl)-2-cyclobutylvinyl)benzo[d]thiazole] | ++ (++ = a single % value ≧ 40%) | ≤ 0.1 | ≥ 40 | ≤ 0.1
